The values below come from patent US9120776B2, “Condensed heterocyclic compound” (Takeda Pharmaceutical Company Limited, priority 2011, dated 2015).

Where two headings read alike, the source gives them in different places.

One experiment relates to Th17 cells. Briefly: Mouse Th17 Cell Differentiation Test (IL-17A in culture supernatant, ELISA). The class given is cell-based. Particulars: inhibitory rate at 10 μM of test compound, mouse CD4 positive naive T cells, 4 days, IL-17A by ELISA; for inhibition at 10 µM: 96 h. On the procedure:
CD4 positive naive T cells were collected from the spleen cells of BALB/c mice (female, 8-11w, Charles River Laboratories Japan, Inc.) using CD4+CD62L+ T Cell Isolation kit II (Miltenyi Biotec). The CD4 positive naive T cells in a 96 well plate (3×10^5 cells/well) were stimulated (37° C. for culture) with anti-mouse CD3ε antibody (Bio X cell) (10 μg/mL, solid phase) and anti-CD28 antibody (Bio X cell) (5 μg/mL) for 4 days in the presence of anti-IFN-γ antibody (BioLegend), anti-IL-4 antibody (BioLegend), anti-IL-2 antibody (BioLegend), IL-6, TGF-β and IL-23 to differentiate into Th17 cells. The compound was dissolved in DMSO and then added thereto. The cells were cultured under these conditions for 4 days, and differentiation of the Th17 cells was evaluated by using the concentration of IL-17A, which was measured by ELISA, in the culture supernatant obtained by centrifugation.

The target in experiment [1] is T1, RORγt (Homo sapiens, UniProt P51449).
T1 sequence (P51449 1-497 isoform P51449-2): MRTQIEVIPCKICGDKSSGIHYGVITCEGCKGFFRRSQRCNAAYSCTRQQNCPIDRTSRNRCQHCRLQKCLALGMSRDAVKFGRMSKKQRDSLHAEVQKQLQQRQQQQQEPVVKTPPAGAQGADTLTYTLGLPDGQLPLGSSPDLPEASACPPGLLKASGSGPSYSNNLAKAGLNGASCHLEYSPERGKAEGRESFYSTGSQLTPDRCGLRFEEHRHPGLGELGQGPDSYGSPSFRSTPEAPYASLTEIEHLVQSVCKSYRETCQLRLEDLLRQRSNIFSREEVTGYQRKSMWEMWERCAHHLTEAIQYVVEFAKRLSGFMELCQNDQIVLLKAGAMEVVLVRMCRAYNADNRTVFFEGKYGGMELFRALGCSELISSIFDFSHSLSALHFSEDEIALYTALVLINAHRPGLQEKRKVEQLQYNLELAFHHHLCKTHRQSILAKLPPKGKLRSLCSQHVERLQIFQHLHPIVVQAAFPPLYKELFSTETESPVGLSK
Briefly: Jurkat Reporter Test (human IL-17 ROR response element luciferase, RORγt vector). The note with it: read-out: inhibitory rate (%). The class given is cell-based. On the procedure: The Jurkat cells used for the reporter test were cultured in a culture medium (RPMI (Invitrogen), 10% FCS (AusGeneX), 100 U/mL penicillin, 100 μg/mL streptomycin). On the day of the test, 4×10^7 cells were recovered by a centrifugal operation (1000 rpm, 5 min.) and suspended in PBS (phosphate buffered saline) (Invitrogen). Thereafter, the cells were recovered again by a centrifugal operation, and suspended in 2 mL of R buffer (NEON transfection kit, Invitrogen). […] Gene transfer was performed by Electroporation apparatus (NEON, Invitrogen) under the conditions of pulse voltage 1350 V, interval 10 milliseconds, number of times 3. The cells after gene transfer were suspended in 40 mL of a reaction medium (RPMI, 10% Lipid reduced FCS (HyClone), 10 mM HEPES (pH 7.5), 100 U/mL penicillin, 100 μg/mL streptomycin, 5 μM lovastatin), and plated in a 96 well plate by 90 μL each. A test compound diluted with the reaction medium was added by 10 μL each, and the cells were cultured overnight in an incubator. Bright-Glo (Promega) was added by 100 μL each, and the mixture was stirred at room temperature for 10 min, and the luminescence level was measured by Envision (PerkinElmer).

For experiment [2], the target named is T1, RORγt. As to the kind of experiment: RORγt Binding Test (TR-FRET, fluorescent-labeled cholesterol). Also noted: histidine tag (implied by the Histidine Detection Kit). The note with it: binding inhibitory rate of fluorescent-labeled cholesterol to RORγt at test compound 1 μM. On the procedure: The binding activity of the test compound to RORγt was measured by a time resolved fluorescence resonance energy transfer method (TR-FRET) utilizing histidine-tagged RORγt, fluorescent-labeled cholesterol (BODIPY-cholesterol, AVIVA) and terbium-labeled anti-histidine tag antibody (Invitrogen). First, a test compound diluted with an assay buffer (20 mM Tris-HCl (pH 7.5), 100 mM NaCl, 1 mM DTT, 0.1% BSA) was added to a 384 well plate by 3 μL each. Then, RORγt diluted with an assay buffer to 240 nM was added by 3 μL each, after which fluorescent-labeled cholesterol diluted with the assay buffer to 12 μM was added by 3 μL each, and the mixture was stood at room temperature for 20 min. Thereafter, a terbium-labeled anti-histidine tag antibody diluted with the assay buffer to 8 nM was added by 3 μL each. The mixture was stood at room temperature for 20 min, and fluorescence intensity (excitation wavelength 320 nm, fluorescence wavelength 520 nm, delay time 100 microseconds) was measured by Envision (PerkinElmer).
(In TR-FRET formats the signal depends on donor and acceptor labels being close together.)

Experiment [3] has as its target T1, RORγt. Briefly: Cofactor Recruitment Test (Alpha Screen, biotinylated SRC-1 peptide). The class given is biochemical. Also noted: histidine tag (implied by the Histidine Detection Kit). The note with it: signal value inhibitory rate at test compound 1 μM. On the procedure: Cofactor recruitment test was performed by Alpha Screen (Histidine Detection Kit, PerkinElmer) method. First, a test compound diluted with an assay buffer (50 mM Tris-HCl (pH 7.5), 50 mM KCl, 1 mM DTT, 0.1% BSA) was added to a 384 well plate by 5 μL each. […] The mixture was stood in a dark place for 1 hr, and the signal value was measured by Envision (PerkinElmer).

The next experiment concerns human PBMC. Briefly: IL17 Production Test in Human PBMC. Format: cell-based. Particulars: 72 h, inhibitory rate at 10 μM of test compound, anti-CD3/CD28 stimulation, 3 days, IL-17A by ELISA. On the procedure: Peripheral blood mononuclear cells (PBMC) collected from human peripheral blood by a density gradient centrifugation method were stimulated by Dynabeads (registered trade mark; anti-CD3/CD28 antibody) and cultured at 37° C. for 3 days. The compound was dissolved in DMSO and then added thereto. After culture for 3 days under such conditions, the concentration of IL-17A in the culture supernatant obtained by centrifugation was measured by ELISA to evaluate the effect of the compound on IL-17 production.

Where [4] appears, read: luminescence level inhibitory rate at test compound 3 μM, Jurkat cells.

For `CCn1c2ccccc2c2cc(NC(=O)CC(C)CC(=O)Nc3ccc(C#N)c(Cl)c3)ccc21` (stereo not shown) [Example 26, N-(3-chloro-4-cyanophenyl)-N′-(9-ethyl-9H-carbazol-3-yl)-3-methylpentanediamide], in the experiment with Th17 cells (10 µM), the “inhibitory rate (%)” value is 96.1%.
On to `CCn1c2ccccc2c2cc(NC(=O)CCC(C)C(=O)Nc3ccc(C#N)c(Cl)c3)ccc21` (stereo not shown) [Example 43, N^1-(3-chloro-4-cyanophenyl)-N^5-(9-ethyl-9H-carbazol-3-yl)-2-methylpentanediamide], for which, on RORγt [1] (Jurkat), the inhibition at 3 µM was determined as 104%. For the same compound, the inhibition at 1 µM on RORγt [2] was 100%; against RORγt [3], 102%.
For `CCn1c2ccccc2c2cc(NC(=O)CC(C)CC(=O)Nc3ccc(C#N)cn3)ccc21` (stereo not shown) [Example 50, N-(5-cyanopyridin-2-yl)-N′-(9-ethyl-9H-carbazol-3-yl)-3-methylpentanediamide], the inhibition at 3 µM at RORγt [1] (setting [4]) stood at 110%. Moreover, the inhibition at 1 µM at RORγt [2] stood at 88.8%; at RORγt [3], 103%.
As to `CCn1c2ccccc2c2cc(NC(=O)CC(C)CC(=O)Nc3ccc(C#N)c(Cl)c3)ccc21` (stereo not shown) [Example 25, N-(3-chloro-4-cyanophenyl)-N′-(9-ethyl-9H-carbazol-3-yl)-3-methylpentanediamide], the inhibition at 10 µM in the experiment with Th17 cells (Mus musculus, CD4 positive) is 96.1%.
As to `CCn1c2ccccc2c2cc(NC(=O)CC(CC(=O)Nc3ccc(C#N)c(Cl)c3)c3ccccc3)ccc21` (stereo not shown) [Example 39, N-(3-chloro-4-cyanophenyl)-N′-(9-ethyl-9H-carbazol-3-yl)-3-phenylpentanediamide], the inhibition at 3 µM on RORγt [1] (Jurkat) was 93.2%. The inhibition at 1 µM at RORγt [2] came to 91.4%; against RORγt [3] it was 102%.
For `CCn1c2ccccc2c2cc(NC(=O)C[S+]([O-])CC(=O)Nc3ccc(C#N)cc3)ccc21` (stereo not shown) [Example 34, 2-((2-((4-cyanophenyl)amino)-2-oxoethyl)sulfinyl)-N-(9-ethyl-9H-carbazol-3-yl)acetamide], the inhibition at 3 µM on RORγt [1] (setting [4]) turned out to be 82.7%. For the same compound, in the experiment with Th17 cells, the inhibition at 10 µM worked out at 96.3%. In addition, the inhibition at 1 µM at RORγt [2] amounted to 94.6%; against RORγt [3], 103%.
For the compound `CCn1c2ccccc2c2cc(NC(=O)CC(C)CC(=O)Nc3ccc(C#N)cc3)ccc21` (stereo not shown) [Step 1 of Example 15, N^1-(4-cyanophenyl)-N^5-(9-ethyl-9H-carbazol-3-yl)-3-methylpentanediamide], the inhibition at 10 µM with Th17 cells turned out to be 93.2%.
For the compound `CCn1c2ccccc2c2cc(NC(=O)C3CCC3C(=O)Nc3ccc(C#N)c(Cl)c3)ccc21` (stereo not shown) [Example 40, N-(3-chloro-4-cyanophenyl)-N′-(9-ethyl-9H-carbazol-3-yl)cyclobutane-1,2-dicarboxamide], the inhibition at 3 µM at RORγt [1] (Jurkat) amounted to 99.3%. The inhibition at 1 µM on RORγt [2] was determined as 96.3%; at RORγt [3], 102%.
Take `CCn1c2ccccc2c2cc(NC(=O)CC(C)CCOc3ccc(C#N)c(C)c3)ccc21` (stereo not shown) [Example 44, 5-(4-cyano-3-methylphenoxy)-N-(9-ethyl-9H-carbazol-3-yl)-3-methylpentanamide]: the inhibition at 3 µM at RORγt [1] (setting [4]) amounted to 77.8%. In addition, the values for the inhibition at 1 µM at RORγt [2] and against RORγt [3] were 62.9% and 98.7%, respectively.
For the compound `CCn1c2ccccc2c2cc(NC(=O)C(C)CCC(=O)Nc3ccc(C#N)c(Cl)c3)ccc21` (stereo not shown) [Example 42, N^5-(3-chloro-4-cyanophenyl)-N^1-(9-ethyl-9H-carbazol-3-yl)-2-methylpentanediamide], on RORγt [1] (Jurkat), the inhibition at 3 µM is 104%. The inhibition at 1 µM at RORγt [2] and on RORγt [3] was 101% each time.
On to `CCn1c2ccccc2c2cc(NC(=O)CC(C)CCOc3ccc(C#N)c(C#N)c3)ccc21` (stereo not shown) [Example 55, 5-(3,4-dicyanophenoxy)-N-(9-ethyl-9H-carbazol-3-yl)-3-methylpentanamide], for which the inhibition at 3 µM on RORγt [1] (setting [4]) was 102%. The inhibition at 1 µM on RORγt [2] is 82.2%; against RORγt [3] it was 104%.
The like results for `CCn1c2ccccc2c2cc(NC(=O)CC(C)CCOc3ccc(C#N)c(Cl)c3)ccc21` (stereo not shown) [Example 38, 5-(3-chloro-4-cyanophenoxy)-N-(9-ethyl-9H-carbazol-3-yl)-3-methylpentanamide] were, in that order, 99.4%, 91.9% and 102%.
As for `CCn1c2ccccc2c2cc(C(=O)NCC(C)CC(=O)Nc3ccc(C#N)c(Cl)c3)ccc21` (stereo not shown) [Example 48, N-{4-[(3-chloro-4-cyanophenyl)amino]-2-methyl-4-oxobutyl}-9-ethyl-9H-carbazole-3-carboxamide], the inhibition at 3 µM at RORγt [1] (Jurkat) was 115%. In addition, the inhibition at 10 µM with Th17 cells (Mus musculus, CD4 positive) came to 96.9%; in the experiment on human PBMC it was 97.6%. The inhibition at 1 µM at RORγt [2] stood at 104%; at RORγt [3], 106%.
Turning to `CCn1c2ccccc2c2cc(NC(=O)CC(C)CC(=O)Nc3ccc(C#N)c(OC)c3)ccc21` (stereo not shown) [Example 41, N-(4-cyano-3-methoxyphenyl)-N′-(9-ethyl-9H-carbazol-3-yl)-3-methylpentanediamide], the inhibition at 3 µM at RORγt [1] (setting [4]) was determined as 96.4%. Also, the figures for the inhibition at 1 µM on RORγt [2] and against RORγt [3] were 93.4% and 100%, respectively.
Consider `CCn1c2ccccc2c2cc(NC(=O)CC(C)CC(=O)Nc3ccc(C#N)nc3)ccc21` (stereo not shown) [Example 49, N-(6-cyanopyridin-3-yl)-N′-(9-ethyl-9H-carbazol-3-yl)-3-methylpentanediamide], for which the inhibition at 3 µM at RORγt [1] (setting [4]) was 109%. For the same compound, the inhibition at 1 µM at RORγt [2] came out at 93.9%; against RORγt [3] it was 104%.
Take `CCn1c2ccccc2c2cc(NC(=O)CSCC(=O)Nc3ccc(C#N)cc3)ccc21` [Example 24, 2-({2-[(4-cyanophenyl)amino]-2-oxoethyl}sulfanyl)-N-(9-ethyl-9H-carbazol-3-yl)acetamide]: the inhibition at 3 µM at RORγt [1] (setting [4]) was determined as 100%. In addition, the inhibition at 10 µM with Th17 cells was determined as 96%. Besides, the inhibition at 1 µM on RORγt [2] is 98.9%; on RORγt [3], 101%.
